Results reported in US12310970B2, “Compounds and methods for treating or preventing anterior segment ocular disorders and/or retinal degenerations” (YALE UNIVERSITY, priority 2018, dated 2025).
Values after ≈ are worked out from the molar mass of the structure shown.

Key:
[1] = Solubility / dissolution in aqueous media; assay type: physicochemical
Experimental: 2.00 g HPBCD was dissolved in 4 mL deionized and filtered water by slow inversion/rotation. […] The volume was adjusted to 5.00 mL to provide 5.00 mL of a 40% clear solution by weight. To the 5.00 mL solution of 40% HPBCD was added 175 mg ciclopirox powder, and the vial was sealed and placed under slow rotary inversion to dissolve the solid. […] This 35 mg/mL solution was easily filtered through a 0.22 um syringe filter (MILLEX GV, PVDF membrane).
To the 5.00 mL solution of 40% HPBCD was added 175 mg (0.844 mmol, MW 207.3) ciclopirox powder and the vial sealed and placed under slow rotary inversion to dissolve the solid. […] This 35 mg/mL solution was easily filtered through a 0.22 um syringe filter (MILLEX GV, PVDF membrane).

[2] = in water; cited from earlier work

Cc1cc(C2CCCCC2)n(O)c(=O)c1 [ciclopirox, 6-cyclohexyl-1-hydroxy-4-methyl-2(1H)-pyridone]
solubility ([1]; aqueous buffer, pH 7.4 phosphate buffer (no saline)): 1000 µg/mL (≈ 4.82 mM)
concentration completely dissolved ([1]; in 40% HPBCD, after 1 hour mixing): 35 mg/mL

OC[C@H]1O[C@@H]2O[C@H]3[C@H](O)[C@@H](O)[C@@H](O[C@H]4[C@H](O)[C@@H](O)[C@@H](O[C@H]5[C@H](O)[C@@H](O)[C@@H](O[C@H]6[C@H](O)[C@@H](O)[C@@H](O[C@H]7[C@H](O)[C@@H](O)[C@@H](O[C@H]8[C@H](O)[C@@H](O)[C@@H](O[C@H]9[C@H](O)[C@@H](O)[C@@H](O[C@H]1[C@H](O)[C@H]2O)O[C@@H]9CO)O[C@@H]8CO)O[C@@H]7CO)O[C@@H]6CO)O[C@@H]5CO)O[C@@H]4CO)O[C@@H]3CO [gamma cyclodextrin]
solubility limit [2]: about 23.2 mg/mL
